Data from BindingDB's records for doi:10.1016/j.bmcl.2006.12.084 (Gsk, 2007).

Target: Free fatty acid receptor 1 (Homo sapiens, UniProt O14842)
Assay: 96-Well Adherent Reporter Cell Assay
Conditions: 22 °C
Protocol: The reporter assay for the stable hGPR40-Gal4-Elk1/5xGal4-luc+-expressing CHO cells was first carried out in the serum-free medium in the presence of test ligand for 5h. The medium was then removed and replaced with 1:1 mixture of LucPlusTM (PerkinElmer Life Sciences) and Dulbecco phosphate buffered saline containing 1 mM CaCl2 and 1 mM MgCl2. Plates were incubated in the dark at room temperature for 10 min before luciferase activity was determined using a TopCountTM microplate scintillation counter (PerkinElmer Life Sciences) at a count time of 3 s/well.

Chain of Free fatty acid receptor 1 (O14842 whole entry): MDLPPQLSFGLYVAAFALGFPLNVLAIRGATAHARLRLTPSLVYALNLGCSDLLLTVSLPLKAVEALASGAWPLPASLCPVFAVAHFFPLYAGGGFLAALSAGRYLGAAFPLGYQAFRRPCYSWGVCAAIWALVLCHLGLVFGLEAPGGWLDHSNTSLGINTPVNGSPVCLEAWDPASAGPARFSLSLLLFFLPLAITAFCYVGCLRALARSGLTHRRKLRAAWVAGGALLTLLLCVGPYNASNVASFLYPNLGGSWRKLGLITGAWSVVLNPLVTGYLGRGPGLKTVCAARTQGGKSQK

EC50 [µM]	Structure (SMILES)
> 31.6	CC(C(=O)O)c1ccc(NCc2ccc(-c3ccccc3)cc2)cc1 (configuration not stated) [2-(4-{[(4-phenylphenyl)methyl]amino}phenyl)propanoic acid]
2	O=C(O)CCc1ccc(NCc2ccc(Cl)s2)cc1 [3-(4-{[(5-chlorothiophen-2-yl)methyl]amino}phenyl)propanoic acid]
2	O=C(O)CCc1ccc(NCc2ccc(C(F)(F)F)cc2)cc1 [3-[4-({[4-(trifluoromethyl)phenyl]methyl}amino)phenyl]propanoic acid]
> 31.6	O=C(O)CCc1ccc(NCc2cccnc2)cc1 [3-{4-[(pyridin-3-ylmethyl)amino]phenyl}propanoic acid]
> 31.6	CN(C)Cc1ccc(CNc2ccc(CCC(=O)O)cc2)cc1 [3-{4-[({4-[(dimethylamino)methyl]phenyl}methyl)amino]phenyl}propanoic acid]

Same assay, conditions: 25 °C

EC50 [µM]	Structure (SMILES)
> 31.6	CS(=O)(=O)Nc1cccc(CNc2ccc(CCC(=O)O)cc2)c1 [3-(4-{[(3-methanesulfonamidophenyl)methyl]amino}phenyl)propanoic acid]
> 31.6	O=C(O)CCc1ccc(NCc2ccc3c(c2)OCO3)cc1 [3-{4-[(2H-1,3-benzodioxol-5-ylmethyl)amino]phenyl}propanoic acid]
> 31.6	O=C(O)CCc1ccc(NCc2ccc(C(=O)O)cc2)cc1 [4-({[4-(2-carboxyethyl)phenyl]amino}methyl)benzoic acid]

Further lines, the molecule ahead of its results:

Structure (SMILES)	EC50 [µM]
NC(=O)c1cccc(CNc2ccc(CCC(=O)O)cc2)c1 [3-(4-{[(3-carbamoylphenyl)methyl]amino}phenyl)propanoic acid]	> 31.6
N#Cc1ccc(CNc2ccc(CCC(=O)O)cc2)cc1 [3-(4-{[(4-cyanophenyl)methyl]amino}phenyl)propanoic acid]	> 31.6
O=C(O)CCc1ccc(NCc2ccc(O)cc2)cc1 [3-(4-{[(4-hydroxyphenyl)methyl]amino}phenyl)propanoic acid]	> 31.6
O=C(O)CCc1ccc(NCc2ncc[nH]2)cc1 [3-{4-[(1H-imidazol-2-ylmethyl)amino]phenyl}propanoic acid]	> 31.6
